Test: Agilent ZORBAX 300 SB-C18, 150 × 1 mm, 3.5 µm; A: water + 0.01% heptafluorobutyric acid; B: acetonitrile + 0.01% heptafluorobutyric acid; gradient (min/%B) 0/0 100/90
Details: stereoisomer not certain

| Compound | LC retention time [min] |
| --- | --- |
| CC(C)NCCCNC(C)C | 7.27 |
| Nc1cccnc1 | 5.54 |
| CC(C)NCC(O)COc1ccc(CCOCC2CC2)cc1 (stereo not drawn) | 10.7 |
| C[N+](C)(C)CCOP(=O)(O)OP(=O)(O)OCC1OC(n2ccc(N)nc2=O)C(O)C1O (stereo not drawn) | 1.63 |
| C=CC1CN2CCC1CC2C(O)c1ccnc2ccc(OC)cc12 (stereo not drawn) | 9.1 |
| Cc1cc(C)ncn1 | 7.51 |
| CNCCc1ccncc1 | 6.72 |
| c1cc(-c2noc(-c3cnccn3)n2)ccn1 | 8.8 |
| CC1CN=C(NC2CCCCC2)S1 (stereo not drawn) | 7.02 |
| NCC1CCCCN1 (stereo not drawn) | 6.88 |
| O=P(O)(O)CN(CCN(CP(=O)(O)O)CP(=O)(O)O)CP(=O)(O)O | 1.09 |
| c1ccc2c(NC3=NCCS3)cccc2c1 | 9.27 |
| CN(CCCN)CCCN | 7.45 |
| CC(=O)C(C)(C)C(C)=NN=C(N)c1ccc(C)cc1 | 9.26 |
| CC(C)c1ncc[nH]1 | 6.64 |
| NC(=O)NCCCC(N)C(=O)O (stereo not drawn) | 1.71 |
| CCN(CC)CC | 7.12 |
| Cn1ccc2cc(C=O)ccc21 | 11.3 |
| CCCCN1CNC(=S)NC1 | 7.45 |
| CCCCC(N)=O | 6.86 |
| S=C1N=C2CCCC2C2(CCCC2)N1 (stereo not drawn) | 8.95 |
| Cc1ccc2c(c1N)C(=O)c1ccccc1C2=O | 14.9 |

| Compound | LC retention time [min] |
| --- | --- |
| COc1ccc(OC)c2c(C)cc(C)nc12 | 8.94 |
| CN1CCCC1 | 5.54 |
| CN(C)c1ccc(N)cc1 | 6.86 |
| Nc1ncccn1 | 5.83 |
| Nc1ccc(N)cc1 | 4.51 |
| Cc1cc2ncn(Cc3c(C)c(C)cc(C)c3C)c2cc1C | 13 |
| c1cncc(CNCc2cccnc2)c1 | 7.11 |
| CCOC(=O)CC1CN(C)CCN1C (stereo not drawn) | 7.31 |
| NCCc1ccccn1 | 6.83 |
| COC(=O)c1cccc(C(=O)OC)n1 | 8.45 |
| O=C(O)c1n[nH]c(=O)[nH]1 | 1.25 |
| NC(N)=NC(CC(=O)O)C(=O)O (stereo not drawn) | 2.11 |
| CC(C)C(N)C(=O)O (stereo not drawn) | 2.86 |
| CCCCN(C)CCCC | 8.6 |
| C[n+]1cccc(C(=O)O)c1 | 1.49 |
| CCNC(=S)N1CCCC(C(N)=O)C1 (stereo not drawn) | 7.41 |
| C=CCNC1(c2ccccc2)CCCCC1 | 9.71 |
| O=C(O)CCCNC(=O)CCCCCCCC(=O)NCCCC(=O)O | 7.58 |
| OC1CCNCC1 | 2.8 |
| Cn1c(=S)[nH]c2ccccc21 | 9.31 |
| c1cc(C2=NC(c3ccncc3)C(c3ccncc3)N2)ccn1 (stereo not drawn) | 7.12 |
| C1CCNCC1 | 6.6 |

| Compound | LC retention time [min] |
| --- | --- |
| Cc1nc2ccc(N)cc2nc1C | 7.33 |
| COCCc1ccc(OCC(O)CNC(C)C)cc1 (stereo not drawn) | 9.27 |
| CN1CCOC1=O | 3.96 |
| CC(C)CCCC(C)N (stereo not drawn) | 9.28 |
| Nc1ncnc(N)n1 | 7.16 |
| NC(=O)C1(N2CCCCC2)CCN(C(=O)C2CCCCC2)CC1 | 8.4 |
| CN(C)CCN(C)CCN(C)CCN(C)C | 7.61 |
| CN(C)c1ccncc1N | 7.03 |
| O=C1CCCN1CP(=O)(O)CN1CCCC1=O | 1.46 |
| Cc1ccccc1N | 7.59 |
| Cc1ccc(N2NC(C)(CC(C)C)NC2=S)cc1 (stereo not drawn) | 15.1 |
| NCCCCCCCCCCN | 7.57 |
| CN(C)CCN(C)C | 7.04 |
| CCN(CC)CCCN | 6.92 |
| Cc1ccc2[nH]c(=O)c(=O)[nH]c2c1C | 8.13 |
| CC1(C)CC(NC(=O)C(=O)NC2CC(C)(C)NC(C)(C)C2)CC(C)(C)N1 | 7.48 |
| CCN(CC)c1ccc(CNCCCN(C)C)cc1 | 7.76 |
| c1ccc(CCN(Cc2ccncc2)Cc2ccccn2)cc1 | 8.96 |
| CCCc1ccc(O)c(N)c1 | 8.64 |
| COc1ccc(N)c(C)c1C | 8.59 |
| COc1ccc2c(c1)C13CCCCC1C(C2)N(C)CC3 (stereo not drawn) | 10.6 |

Second part, the molecule after the results:

| LC retention time [min] | Compound |
| --- | --- |
| 6.84 | Nc1ncnc2ccccc12 |
| 7.87 | Nc1cccc(C2OCCCO2)c1 |
| 15.8 | CCN(CC)c1ccc(C(=O)NC(c2ccccc2)c2ccccc2)cc1 |
| 14.8 | CCOC(=O)c1ccc(NC(=O)CC(C)(C)C)cc1 |
| 20.4 | CC(C)c1ccc(-c2cc(-c3ccccc3)c3c(ccc4ncccc43)n2)cc1 |
| 7.26 | NC1Cc2ccccc2NC1=O (stereo not drawn) |
| 8.36 | Cc1cccc[n+]1CC(=O)c1ccccc1 |
| 17.5 | Cc1ccc(N2CCN(C(=O)C(c3ccccc3)c3ccccc3)CC2)cc1C |
| 14.5 | O=C(C=Cc1ccco1)c1ccccc1 |
| 7.3 | O=C(O)Cn1cnc2ccccc2c1=O |
| 14.4 | S=c1[nH]c(-c2ccccc2)c(-c2ccccc2)n1-c1ccccc1 |
| 8.82 | Cc1cc(C)c(NC(=O)Nc2ccccc2)c(C)n1 |
| 13.3 | COc1cccc(OC)c1OCc1nc2ccccc2nc1C |
| 11.2 | O=C1CC(N2CCN(C(c3ccccc3)c3ccccc3)CC2)C(=O)N1c1ccccc1 (stereo not drawn) |
| 14.3 | O=C(O)CCn1c2c(c3ccccc31)CCCC2 |
| 12.7 | Cc1ccc(C)n1-c1ccccc1CO |
| 6.75 | COc1ccccc1-n1c(=O)[nH][nH]c1=O |
| 9.12 | Cn1c(=O)cc(O)c2ccccc21 |
| 7.05 | CC1NC(=O)N(c2cccc(N)c2)C1=O (stereo not drawn) |
| 8.83 | O=c1ccc2ccccc2[nH]1 |
| 13 | Cc1ccc(C)n1-c1ccc(C(=O)O)cc1 |
| 8.87 | OCc1ccccc1CNC1CCCCC1 |
| 8.94 | CC1=NN(c2ccc(C)cc2)C(=O)C1C=O (stereo not drawn) |

| LC retention time [min] | Compound |
| --- | --- |
| 11 | Cc1ccc(OCCOCn2c(C)cc(=O)[nH]c2=O)cc1 |
| 12.8 | O=C(NC(Cc1ccccc1)C(=O)NCc1ccco1)c1ccccc1 (stereo not drawn) |
| 8.05 | Cc1cc(=O)n(-c2ccc(C(=O)O)cc2)[nH]1 |
| 8.2 | NCCCOc1ccccc1 |
| 13.8 | CCN(CC)c1ccc(C2Nc3ccccc3C(CC)(CC)O2)cc1 (stereo not drawn) |
| 10.4 | Nc1nc(=Nc2ccccc2)n2c(n1)sc1ccccc12 |
| 10.6 | CC(=O)Nc1ccc(CC(C(=O)O)c2ccccc2)cc1 (stereo not drawn) |
| 10.5 | NC(=O)c1ccccc1NC(=O)c1cc2c(n(-c3ccccc3)c1=O)CCCC2=O |
| 21.2 | c1ccc(-n2c3c(c4ccccc42)CCCC3)cc1 |
| 9.64 | COC(=O)C1C(O)CCC2CN3CCc4c([nH]c5ccccc45)C3CC21 (stereo not drawn) |
| 13.3 | CC(=O)Oc1ccc2c(c1)cc(C)n2C |
| 7.34 | Cc1ccc(N)cc1C(=O)O |
| 12.5 | Cc1cc(C(=O)O)c(C)n1CCc1c[nH]c2ccccc12 |
| 16.5 | CC(C)(C)c1ccc2[nH]c3c(c2c1)CCCC3=O |
| 11.9 | COc1ccc(C2CC(=O)Nc3cc4c(cc32)OCO4)cc1 (stereo not drawn) |
| 10.2 | O=C(NN=Cc1ccc(O)c(O)c1)c1ccc(NC(=O)c2ccccc2)cc1 |
| 9.62 | Cc1cccc(NC(=O)c2ccc3nccnc3c2)n1 |
| 11.8 | CCCCOc1cc(C(=O)NCCN(CC)CC)c2ccccc2n1 |
| 13.9 | CC(=NNC(=O)CNC(=O)c1ccco1)c1ccc(C(C)(C)C)cc1 |
| 7.02 | NC(CO)c1ccccc1 (stereo not drawn) |
| 9.33 | CC(c1ccccc1)N1CNc2c(c(=O)[nH]c(=O)n2Cc2ccccc2)C1 (stereo not drawn) |
| 8.37 | C(=NNc1nncc2ccccc12)c1cccnc1 |
| 11.2 | CCNC(=S)NCCc1c[nH]c2ccccc12 |

| LC retention time [min] | Compound |
| --- | --- |
| 8.48 | CC(=O)N1CCc2cc(C(=O)O)ccc21 |
| 8.12 | O=C(CNC(=O)c1ccco1)NN=Cc1ccco1 |
| 10.1 | CCOC(=O)C=CC(=O)NNC(=O)CCC(=O)Nc1ccc(C)cc1C |
| 8.07 | O=C1c2ccccc2C(=O)N1CCN1CCNCC1 |
| 13.9 | O=Cc1c(-c2ccccc2)c(C=O)n2ccccc12 |
| 10.2 | O=C(CCN1C(=O)c2ccccc2C1=O)Nc1cccc(C(=O)O)c1 |
| 1.56 | O=C1CCC(=O)N1c1ccc(S(=O)(=O)O)cc1 |
| 10.8 | CC(C)c1ccc(OCC(=O)N2CCC(C(N)=O)CC2)cc1 |
| 10.2 | O=C(NCc1ccncc1)c1ccc(-c2ccccc2)cc1 |
| 10 | Cn1c(=N)n(CC(=O)c2ccccc2)c2ccccc21 |
| 7.31 | Nc1ccc(N2CCCC2=O)cc1 |
| 15.5 | c1ccc(CCn2cccc2)cc1 |
| 16.7 | CC(C)(C)c1ccc(C(=O)NC(CC(=O)O)c2ccc(C(C)(C)C)cc2)cc1 (stereo not drawn) |
| 7.89 | Oc1ccccc1N1CCCCC1 |
| 9.07 | Nc1ccc(C(O)(c2ccc(N)cc2)c2ccc(N)cc2)cc1 |
| 12 | COc1cccc(C2CC(=O)Nc3cc4c(cc32)OCO4)c1OC (stereo not drawn) |
| 7 | NCc1ccccc1C(=O)O |
| 10.1 | O=C(Cn1cnc2ccccc2c1=O)NN=Cc1cnc2ccccc2n1 |
| 11.5 | Oc1ccc(-n2cccc2)cc1 |
| 16.3 | Cc1ccc(-c2cnc3ccccc3n2)cc1 |
| 14.4 | S=C(NCc1ccccc1)Nc1cccc2ccccc12 |
| 13.1 | Cc1cccc(C)c1NC(=S)Nc1ccccc1 |

Source: the RepoRT retention time repository
